Assay results: the METLIN SMRT retention time set (Domingo-Almenara et al. 2019)

Assay: gradient 5% acetonitrile 3 min, to 50% in 2 min, to 85% in 15 min, held 3 min, 100 µL/min
Details: column: Zorbax Extend-C18 2.1 x 50 mm; eluents: water / acetonitrile, 0.1% formic acid
Procedure, shortened: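 A Zorbax Extend-C18 column (2.1 × 50 mm, 1.8 μm) run at 100 μL/min with water and acetonitrile, both containing 0.1% formic acid, separated mixtures of ~100 pure standards. The HPLC was coupled to a quadrupole time-of-flight mass spectrometer operated in positive and negative ionization mode, with dead and dwell volumes of 40 μL and 900 μL. Each retention time was taken from a computationally picked adduct peak that was then manually inspected.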

Structure (SMILES) | RP-LC retention time
NC(=O)C1CCN(C(=O)CN2CCN(c3ccccc3)CC2)CC1 | 582 s
Cc1csc(-c2cc(S(=O)(=O)NC(C)(C)C)cn2CC(=O)N2CCCC2)n1 | 1160 s
Cc1ccc(C(=O)NCCc2sccc2C)cc1NC1=NC2CS(=O)(=O)CC2S1 (stereo not given) | 685 s
CC(=O)c1cccc(NC(=O)c2csc3c2CCCC3)c1 | 996 s
CCC1Oc2ccc(S(=O)(=O)N3CCC(C(=O)Nc4ccc(C)c(Cl)c4)CC3)cc2NC1=O (stereo not given) | 1020 s
CCOC(=O)c1noc2nc(C)nc(NCCc3ccc(OCC)cc3)c12 | 1170 s
CCCCNC(=O)c1nc(Nc2ccc(C)cc2)c2ccccc2n1 | 831 s
CCCNC(=O)c1cc2sccc2n1Cc1ccc(C)cc1 | 1060 s
CCCc1c(C(=O)O)nnn1Cc1cccc(OC)c1 | 738 s
CCOc1ccccc1NC(=O)Cn1cccc(S(=O)(=O)N2CCC(C)CC2)c1=O | 857 s
Cn1cc(-c2cc3n(n2)CCC(=O)N3CCCC(=O)N2CCCCC2)c2ccccc21 | 802 s
c1ccc2c(c1)c(-c1noc(-c3ccncc3)n1)nn2CCN1CCCCC1 | 642 s
Cc1ccc(CNC(=O)C2CCCN(c3cnn(C)c(=O)c3)C2)cc1 (stereo not given) | 715 s
COc1ccc(C(=O)N2CCN(c3ccc(=O)n(-c4cccc(Cl)c4)n3)CC2)cc1OC | 784 s
COc1ccc(OC)c(C(O)Cn2ccn3nc(-c4ccc(C(C)C)cc4)cc3c2=O)c1 (stereo not given) | 1090 s
O=c1oc2cc(O)c(O)cc2c2c1CCC2 | 641 s
COc1ccc(OC)c2sc(NC(=O)c3cc(C)on3)nc12 | 748 s
O=C(NCCCn1c(-c2ccncc2)nc2cccnc21)NCCc1ccccc1 | 649 s
Cc1cc(N2C=C(C(=O)N3CCOCC3)S(=O)(=O)c3ccc(F)cc32)ccc1F | 814 s
CCCN1C(=O)C(CC(=O)N2CCCC2)Sc2ncccc21 (stereo not given) | 691 s
COc1ccc(-n2nnc(-c3nc(-c4cccc(OC)c4)cs3)c2N)cc1 | 1070 s
O=C(CCCS(=O)(=O)c1ccc(F)cc1)Nc1nc2c(s1)COc1ccccc1-2 | 872 s
CCCc1nc(-c2c(C)cc(C)nc2NC(=O)c2ccccc2F)no1 | 883 s

Structure (SMILES) | RP-LC retention time
COc1ccc(Cl)cc1NC(=O)Nc1ccc2c(c1)CCN2S(=O)(=O)c1ccccc1 | 1090 s
COc1cc(OC)cc(-c2nc(C3CC(=O)N(c4ccc(OC)c(OC)c4)C3)no2)c1 (stereo not given) | 877 s
COc1ccc(NC(=O)N2CC=C(c3cn(C(C)C)c4ncccc34)CC2)cc1 | 858 s
COc1ccc(OC)c(NC(=O)CN2CCc3[nH]c4c(C)ccc(C)c4c(=O)c3C2)c1 | 693 s
C=CCN1C(=O)COc2ccc(-c3csc(NC(=O)c4ccc(Br)cc4)n3)cc21 | 1120 s
Cc1noc(-c2ccc(=O)n(Cc3cccc(C(F)(F)F)c3)c2)n1 | 806 s
CN1C(=O)Cc2cc(C(=O)NC3CCCCC3)ccc21 | 692 s
Cc1nc(-c2ccc3c(c2)CCN3C(=O)Cc2cccs2)cs1 | 965 s
Cc1ccc(NC(=O)Cc2csc3nc(-c4ccccc4)cn23)c(Br)c1 | 872 s
O=C(NC1CCCC1)C1c2ccccc2CC(=O)N1Cc1ccccc1 (stereo not given) | 856 s
CC(C)COc1cc(=O)n2c(c1C(=O)NC1CCN(C)CC1)CCCCC2 | 571 s
Cc1ccc(CNC(=O)CCCn2nc(-n3cccc3)c3c(C)cc(C)nc32)cc1 | 1050 s
CC(=O)Oc1cc2c(C(=O)NCc3ccccn3)c(C)oc2c2ccccc12 | 638 s
CCn1c(CCNC(=O)c2cc(F)ccc2F)nc2cccnc21 | 641 s
COc1ccc(N2CCN(C(=O)C3CCCN(c4cnc5nccnc5c4)C3)CC2)cc1 (stereo not given) | 737 s
CCc1nn2c(CNS(=O)(=O)c3ccc(Cl)cc3C)c(-c3ccccc3)nc2s1 | 1050 s
O=C(Cn1nc2c(Oc3ccc(Cl)cc3)nccn2c1=O)NC1CCCC1 | 810 s
CCOc1ccccc1NC(=O)c1cc2c(=O)n(CC(C)C)c3ccccc3n2n1 | 1350 s
CCOC(=O)C1CCN(C(=O)CN2C(=O)C3CCCCN3c3ccc(C(=O)N(C)C)cc32)CC1 (stereo not given) | 732 s
CCOc1ccc(-c2ccc(=O)n(CCc3nc(-c4cc(OC)cc(OC)c4)no3)n2)cc1 | 1020 s
CCCNC(=O)CSc1cc(NCc2ccc(Cl)cc2)ncn1 | 778 s
Cc1ccc(S(=O)(=O)c2nc(S(C)(=O)=O)sc2NCc2ccccn2)cc1 | 763 s
Cc1cc(C)cc(NC(=O)N2CC(CN(C)C)C3(CCCCC3)C2)c1 (stereo not given) | 695 s

Structure (SMILES) | RP-LC retention time
CCCC(NC(=O)c1ccccc1)C(=O)Nc1nc2ccccc2[nH]1 (stereo not given) | 688 s
CCOC(=O)CCC(=O)Nc1ncc(C#N)s1 | 667 s
CCOC(=O)C(=O)Nc1ccc(SCc2nnc(-c3ccccc3C)o2)cc1 | 950 s
CCOc1ccc(N2CC(c3nc(-c4ccccc4Cl)no3)CC2=O)cc1 (stereo not given) | 1000 s
CCN(CC)C(=O)Cn1nc2cc(-c3ccc(OC)cc3)nc(C)n2c1=O | 842 s
O=C1COc2cc(Cl)ccc2N1Cc1nc(-c2ccc(F)c(Cl)c2)no1 | 1190 s
O=S(=O)(c1ccc2c(c1)CCCC2)N1CCCn2nc(-c3cccnc3)cc2C1 | 781 s
Clc1ccc(Cc2nnc3sc(-c4ccc5ccccc5n4)nn23)cc1 | 1210 s
Cc1ccc(S(=O)(=O)N2C[C@H]3CN(C(=O)NCCc4ccccc4)C[C@@H](C2)O3)cc1 | 834 s
O=C(C1CC1)N1CCc2sc(S(=O)(=O)Nc3ccc(Cl)cc3)cc2C1 | 853 s
COc1ccc2nc(CN3CCN(S(=O)(=O)c4cccs4)CC3)[nH]c2c1 | 584 s
Cc1ccc(-c2csc(Cc3nc(-c4ccc(C)cc4)no3)n2)cc1 | 1320 s
COCc1cnc2c(c1SCc1ccc(F)cc1)c(=O)n(C)c(=O)n2C | 997 s
Cc1cc(C)n(-c2nc(C)c(C(=O)N3CCc4ccccc4C3)s2)n1 | 1090 s
Cc1nnc(CNC(=O)C(=O)Nc2ccc3c(c2)OCCO3)o1 | 615 s
COC(=O)c1cccc(Nc2c(-c3ccc(Cl)cc3)nc3cnccn23)c1 | 905 s
CC(=O)N1CCc2ccccc2C1C(=O)NCc1cccs1 (stereo not given) | 720 s
CCOC(=O)CC(=O)Nc1nc(C2COc3ccccc3O2)cs1 (stereo not given) | 921 s
COc1cc(OC)c(-n2nnc(-c3nsc(Nc4ccc(OC)c(OC)c4)n3)c2C)cc1Cl | 928 s
CCOC(=O)c1cn(CC)c2cc(N3CCCC3)c(F)cc2c1=O | 822 s
CC(C)n1c(N2CCN(C(=O)c3cccnc3)CC2)cc(=O)n(C(C)C)c1=O | 602 s
O=C(NCC1(c2cccs2)CCOCC1)C(=O)Nc1ccc2c(c1)OCCO2 | 802 s
Cc1cc(=O)n(CC(=O)Nc2ccc(Br)cc2)c(N2CCCCC2)n1 | 716 s

Structure (SMILES) | RP-LC retention time
Cn1ncc2c(N3CCSCC3)nc(C(=O)NCc3ccc(C(F)(F)F)cc3)nc21 | 907 s
Cc1csc(-c2cc(S(=O)(=O)N3CCC(C)CC3)cn2CC(=O)N2CCCCC2)n1 | 1130 s
CN(C)c1ccc2c(c1)CN(Cc1ccccc1C#N)CCO2 | 592 s
CNC(=O)c1nc(-c2ccc(C)cc2)n2c1CCCCC2 | 702 s
CCN1CCN(CCNC(=O)Cn2c(=O)c3cccn3c3ccc(F)cc32)CC1 | 589 s
Cc1ccc(Cn2c(=O)c(N3CCCC(C(=O)NCCc4ccco4)C3)nc3ccccc32)cc1 (stereo not given) | 1090 s
CCn1ccc2c(cc(C(=O)Nc3cc(Cl)ccc3OC)n2C)c1=O | 1150 s
Cn1cccc1C(=O)C(=O)N1CCN(c2ccc(Cl)cc2)CC1 | 904 s
O=c1oc2c(O)c(O)ccc2c2c1CCCC2 | 683 s
CC(C)OCCCNC(=O)c1c2c(cn(-c3ccc(F)cc3)c1=O)C(=O)CC(C)(C)C2 | 885 s
Cc1oc(-c2[nH]ncc2C(=O)N2CCCC2)cc1S(=O)(=O)NC1CC1 | 620 s
O=C(Nc1ccccc1)NC1CCCN(c2cc(-c3ccncc3)[nH]n2)C1 (stereo not given) | 602 s
CCCNc1cc(N2CCCC(CCC(=O)Nc3ccc(OCC)cc3)C2)ncn1 (stereo not given) | 728 s
Cc1[nH]nc2ccc(-c3cncc(OC[C@@H](N)Cc4ccccc4)c3)cc12 | 624 s
Cc1c(C(=O)O)nnn1-c1ccc2c(c1)OCO2 | 639 s
CCSc1nnc(-c2nn(C)c3c2CN(S(=O)(=O)c2ccc(F)c(C)c2)CC3)n1CC | 978 s
CCc1nccn1Cc1nc(-c2cccc(Cl)c2)no1 | 667 s
COC(=O)c1ccc2c(=O)n(-c3ccccc3)c(N3CCN(C)CC3)nc2c1 | 624 s
CCc1nc(-c2csc(S(=O)(=O)N3CCC(C(=O)Nc4ccc(C)cc4C)CC3)c2)no1 | 1090 s
CCOc1ccc(NS(=O)(=O)c2cc(-c3[nH]ncc3C(=O)N(C)C)oc2C)cc1 | 686 s
CCCN1C(=O)C(CC(=O)NC(C)C)Sc2ncccc21 (stereo not given) | 680 s
